In general, IC50 refers to the point on the concentration scale where inhibition reaches its midpoint.

Like-named read-outs stand apart in the source and are kept apart here.

From patent publication US20250257061A1, “COMPOSITIONS AND METHODS FOR TREATING CANCER AND REDUCING WNT MEDIATED EFFECTS” (StemSynergy Therapeutics, Inc., priority 2024, published 2025) come the findings set out here.

In test [1] the test system is Wnt-dependent HCT116 cell line. Kind of test: Viability assay using Wnt-dependent HCT116 cell line (Cell Titer Glo). The test is classed as cell-based. The protocol:
All compounds were tested using the human cell line HEK STF293. This cell line carries a Wnt reporter (TCF/LEF1 promoter), which drives expression of the firefly luciferase protein. The level of Wnt activity is directly correlated with the level of luciferase activity (determined using a simple assay). Compounds that inhibit Wnt signaling by reducing luciferase activity in these two cell lines are further tested biochemically. […] Compounds were further tested in a Viability assay using Wnt-dependent HCT116 cell line. HEK293 cells were seeded in a 6-well plate at approximately 8.0×10^5 cells (2 mL per well). On the first day, Wnt3a-conditioned media (1:1) and compounds (1:100) were added to the plated cells. The final concentrations of compounds were 1 μM, 500 nM, and 100 nM. Vehicle (DMSO) and a Wnt3a-conditioned media plus Vehicle samples were also prepared as controls. Lysates were collected (with non-denaturing lysis buffer) after 24 hours incubation, and protein concentrations determined by Bradford Assay. Immunoblotting with an anti-beta-catenin antibody (equivalent amounts of protein/lane for each condition) were subsequently performed to determine beta-catenin levels. HCT116 cells were seeded at 2,500 cells/well in a 96-well dish (Volume: 100 μL/well). On the second day, the 10 mM stock solution of each test compound was thawed at room temperature. Dilutions of the test compound were prepared in DMSO in a V-bottom 96-well plate. The stock compound solution, DMSO-diluted compound solutions, and DMSO were further diluted 500-fold in cell culture media, and 100 μL of the compound- or DMSO-containing cell culture media was added to each well of the cells. […] The final DMSO concentration was 0.1% in all wells. On the fifth day, 150 μL of media was removed from each well. 50 μL/well Cell Titer Glo reagent (Promega) was added to each well. The plate was shaken at 130 rpm for 15 minutes at room temperature, and the cell viability was determined using a luminescence plate reader. All compounds were tested using the human cell line HEK STF293. This cell line carries a Wnt reporter (TCF/LEF1 promoter), which drives expression of the firefly luciferase protein. The level of Wnt activity is directly correlated with the level of luciferase activity (determined using a simple assay). Compounds that inhibit Wnt signaling by reducing luciferase activity in these two cell lines are further tested biochemically. […] Compounds were further tested in a Viability assay using Wnt-dependent HCT116 cell line. HEK293 cells were seeded in a 6-well plate at approximately 8.0×10^5 cells (2 mL per well). On the first day, Wnt3a-conditioned media (1:1) and compounds (1:100) were added to the plated cells. The final concentrations of compounds were 1 μM, 500 nM, and 100 nM. Vehicle (DMSO) and a Wnt3a-conditioned media plus Vehicle samples were also prepared as controls. Lysates were collected (with non-denaturing lysis buffer) after 24 hours incubation, and protein concentrations determined by Bradford Assay. Immunoblotting with an anti-beta-catenin antibody (equivalent amounts of protein/lane for each condition) were subsequently performed to determine beta-catenin levels. HCT116 cells were seeded at 2,500 cells/well in a 96-well dish (Volume: 100 μL/well). On the second day, the 10 mM stock solution of each test compound was thawed at room temperature. Dilutions of the test compound were prepared in DMSO in a V-bottom 96-well plate. The stock compound solution, DMSO-diluted compound solutions, and DMSO were further diluted 500-fold in cell culture media, and 100 μL of the compound- or DMSO-containing cell culture media was added to each well of the cells. […] The final DMSO concentration was 0.1% in all wells. On the fifth day, 150 μL of media was removed from each well. 50 μL/well Cell Titer Glo reagent (Promega) was added to each well. The plate was shaken at 130 rpm for 15 minutes at room temperature, and the cell viability was determined using a luminescence plate reader. […]
(Cellular ATP, detected with luciferase, serves as a proxy for viable cell number.)

The subject of test [2] is Wnt reporter (TCF/LEF1 promoter). Kind of test: HEK STF293 Wnt reporter (TOPFlash) luciferase assay, Steady Glo normalised to Cell Titer. The test is classed as cell-based, human. The protocol:
All compounds were tested using the human cell line HEK STF293. This cell line carries a Wnt reporter (TCF/LEF1 promoter), which drives expression of the firefly luciferase protein. The level of Wnt activity is directly correlated with the level of luciferase activity (determined using a simple assay). Compounds that inhibit Wnt signaling by reducing luciferase activity in these two cell lines are further tested biochemically. […] Compounds were further tested in a Viability assay using Wnt-dependent HCT116 cell line. Compounds were prepared as 10 mM stocks for each compound in DMSO. Dilutions were prepared in a 96-well plate in DMSO. The stock dilutions are as follows: 10 mM, 1 mM, 100 μM, 10 μM, 100 nM, and 10 nM. Plates were sealed and stored at −20° C. […] On the first day, Wnt3a-conditioned media (1:1) were added along with diluted compounds (1:100). […] The final concentrations should therefore be 100 μM, 10 μM, 1 μM, 100 nM, 10 nM, and 1 nM. On the second day, the media was removed and 75 μL of Passive Lysis Buffer (Promega) is added to each well. The plate was shaken at 130 rpm for 15 minutes. For the Steady Glo assay, 45 μL of the lysis was removed and added to a white 96-well plate containing 45 μL/well of Steady Glo solution (Promega). For the Cell Titer assay, 25 μL of the lysis was transferred to a white 96-well plate containing 25 μL/well of Cell Titer solution (Promega). Both Steady Glo and Cell Titer assays were read with a luminescence plate reader. When determining EC50, the Steady Glo values were divided by the Cell Titer values to normalize for cell number. All compounds were tested using the human cell line HEK STF293. This cell line carries a Wnt reporter (TCF/LEF1 promoter), which drives expression of the firefly luciferase protein. The level of Wnt activity is directly correlated with the level of luciferase activity (determined using a simple assay). Compounds that inhibit Wnt signaling by reducing luciferase activity in these two cell lines are further tested biochemically. […] Compounds were further tested in a Viability assay using Wnt-dependent HCT116 cell line. Compounds were prepared as 10 mM stocks for each compound in DMSO. Dilutions were prepared in a 96-well plate in DMSO. The stock dilutions are as follows: 10 mM, 1 mM, 100 μM, 10 μM, 100 nM, and 10 nM. Plates were sealed and stored at −20° C. […] On the first day, Wnt3a-conditioned media (1:1) were added along with diluted compounds (1:100). […] The final concentrations should therefore be 100 μM, 10 μM, 1 μM, 100 nM, 10 nM, and 1 nM. On the second day, the media was removed and 75 μL of Passive Lysis Buffer (Promega) is added to each well. The plate was shaken at 130 rpm for 15 minutes. For the Steady Glo assay, 45 μL of the lysis was removed and added to a white 96-well plate containing 45 μL/well of Steady Glo solution (Promega). For the Cell Titer assay, 25 μL of the lysis was transferred to a white 96-well plate containing 25 μL/well of Cell Titer solution (Promega). Both Steady Glo and Cell Titer assays were read with a luminescence plate reader. When determining EC50, the Steady Glo values were divided by the Cell Titer values to normalize for cell number. All compounds were tested using the human cell line HEK STF293. This cell line carries a Wnt reporter (TCF/LEF1 promoter), which drives expression of the firefly luciferase protein. The level of Wnt activity is directly correlated with the level of luciferase activity (determined using a simple assay). Compounds that inhibit Wnt signaling by reducing luciferase activity in these two cell lines are further tested biochemically. […] Compounds were further tested in a Viability assay using Wnt-dependent HCT116 cell line. Compounds were prepared as 10 mM stocks for each compound in DMSO. Dilutions were prepared in a 96-well plate in DMSO. The stock dilutions are as follows: 10 mM, 1 mM, 100 μM, 10 μM, 100 nM, and 10 nM. Plates were sealed and stored at −20° C. […]

Setting [3] is: Homo sapiens, HCT-116, Examples for Formulae (IV), (V), (VI), and (VII), HCT116 cells, read-out: Viability IC50 category.
The mark [4] stands for this setting: Homo sapiens, STF/293, Examples for Formulae (IV), (V), (VI), and (VII), HEK STF293 cells, Wnt3a-conditioned media, read-out: TOPFlash IC50 category.
Setting [5] is: Examples for Formulae (IV), (V), (VI), and (VII), HCT116 cells, read-out: Viability IC50 category.
Where [6] appears, read: Examples for Formulae (IV), (V), (VI), and (VII), HEK STF293 cells, Wnt3a-conditioned media, read-out: TOPFlash IC50 category.
The mark [7] stands for this setting: Homo sapiens, HCT-116, Examples for Formulae (I), (II), and (III), HCT116 cells, read-out: Viability IC50 category.
Where [8] appears, read: Homo sapiens, STF/293, Examples for Formulae (I), (II), and (III), HEK STF293 cells, Wnt3a-conditioned media, read-out: TOPFlash IC50 category.
Setting [9] is: Homo sapiens, HCT-116, Examples for Formulae (VIII), (IX), and (X), HCT116 cells, read-out: Viability IC50 category.
Setting [10] is: Homo sapiens, STF/293, Examples for Formulae (VIII), (IX), and (X), HEK STF293 cells, Wnt3a-conditioned media, read-out: TOPFlash IC50 category.
Setting [11] is: Homo sapiens, HCT-116, read-out: Viability IC50 category.
[12] abbreviates: Homo sapiens, STF/293, read-out: TOPFlash IC50 category.

As for `CN(C(=O)c1ccc(F)cc1)c1nc(-c2ccc(F)cc2)c(C(=O)Nc2nc(-c3ccccn3)cs2)o1` [Example 76], the IC50 in test [1] (setting [3]) and in test [2] (setting [4]) was below 200 nM in each case.
Regarding `CN(c1nc(-c2ccc(S(C)(=O)=O)cc2)c(C(=O)Nc2nc(-c3ccccn3)cs2)o1)S(=O)(=O)c1ccc(C(F)(F)F)cc1` [Example 75], the IC50 was below 200 nM in test [1] (setting [5]) and 200 to 500 nM in test [2] (setting [6]).
On to `COCc1nc(-c2ccc(F)cc2)c(C(=O)Nc2nc(-c3ccccn3)cs2)o1` [Example 69], for which the IC50 in test [1] (setting [3]) and in test [2] (setting [4]) was 200 to 500 nM each time.
For the molecule `O=C(Nc1nc(-c2ccccn2)cs1)c1ocnc1-c1ccc(F)cc1F` [Example 12], the IC50 in test [1] (setting [3]) and in test [2] (setting [4]) was 200 to 500 nM in each case.
In the case of `CN(C(=O)c1ccccc1Cl)c1nc(C(F)(F)F)c(C(=O)Nc2nc(-c3ccccn3)cs2)o1` [Example 78], the IC50 is 1000 to 10000 nM in test [1] (setting [3]) and 500 to 1000 nM in test [2] (setting [4]).
`Cc1nn(Cc2ccc(F)cc2)c(C)c1C(=O)Nc1nc(-c2ccccn2)cs1` [Example 7]: the IC50 in test [1] (setting [7]) and in test [2] (setting [8]) was 500 to 1000 nM throughout.
On to `Cc1nc(-c2ccc(-c3nnc(C(F)(F)F)o3)cc2)c(C(=O)Nc2nc(-c3ccccn3)cs2)o1` [Example 66], for which the IC50 in test [1] (setting [5]) and in test [2] (setting [6]) was below 200 nM each time.
Take `COc1ccc(Cn2cc(C(=O)Nc3nc(-c4ccccn4)cs3)cn2)cc1` [Example 3]: the IC50 in test [1] (setting [7]) and in test [2] (setting [8]) was 1000 to 10000 nM in each case.
Take `CS(=O)(=O)c1ccc(F)cc1-c1ncoc1C(=O)Nc1nc(-c2ccccn2)cs1` [Example 47]: the IC50 in test [1] (setting [3]) is 200 to 500 nM; in test [2] (setting [4]), 500 to 1000 nM.
`Cc1onc(-c2ccc(Cl)cc2F)c1C(=O)Nc1nc(-c2ccccn2)cs1` [Example 16]: the IC50 in test [1] (setting [3]) and in test [2] (setting [4]) was 200 to 500 nM in each case.
For `O=C(Nc1nc(-c2ccccn2)cs1)c1ocnc1-c1ccc(C(=O)N2CCOCC2)cc1` [Example 42], the IC50 in test [1] (setting [3]) and in test [2] (setting [4]) was 500 to 1000 nM throughout.
As to `Cn1nc(C(=O)Nc2nc(-c3ccccn3)cs2)c(-c2ccc(F)cc2)n1` [Example 19], the IC50 in test [1] (setting [7]) and in test [2] (setting [8]) was 200 to 500 nM each time.
Consider `O=C(Nc1nc(-c2ccccn2)cs1)c1cccnc1-c1ccc(F)cc1` [Example 12], for which the IC50 in test [1] (setting [9]) lay within 500 to 1000 nM; in test [2] (setting [10]) it was 200 to 500 nM.
Taken in the same sequence, the figures for `O=C(Nc1nc(-c2ccccn2)cs1)c1ccc(=O)n(Cc2ccc(F)cc2)c1` [Example 4] were 500 to 1000 nM and 500 to 1000 nM.
Taken in the same sequence, the figures for `O=C(Nc1nc(-c2ccccn2)cs1)c1ccc(=O)n(Cc2ccccc2Cl)c1` [Example 5] were 200 to 500 nM and 200 to 500 nM.
`COc1ncccc1-c1noc(C)c1C(=O)Nc1nc(-c2ccccn2)cs1` [Example 22]: the IC50 in test [1] (setting [11]) and in test [2] (setting [12]) was 200 to 500 nM each time.
As for `O=C(Nc1nc(-c2ccccn2)cs1)c1ocnc1-c1ccccc1` [Example 2], the IC50 was 200 to 500 nM in test [1] (setting [3]) and below 200 nM in test [2] (setting [4]).
Taken in the same sequence, the figures for `Cc1onc(-c2ccc(OC(F)(F)F)cc2)c1C(=O)Nc1nc(-c2ccccn2)cs1` [Example 26] were below 200 nM and 200 to 500 nM.
For the molecule `COc1cccc(-c2noc(C)c2C(=O)Nc2nc(-c3ccccn3)cs2)c1` [Example 18], the IC50 in test [1] (setting [3]) was in the range of 500 to 1000 nM; in test [2] (setting [4]), 200 to 500 nM.
In the case of `Cc1nn(Cc2ccc(F)cc2)c(Cl)c1C(=O)Nc1nc(-c2ccccn2)cs1` [Example 9], the half-maximal inhibitory concentration (IC50) in test [1] (setting [7]) and in test [2] (setting [8]) was 500 to 1000 nM in each case.
`Cc1onc(-c2c(Cl)cccc2Cl)c1C(=O)Nc1nc(-c2ccccn2)cs1` [Example 29]: the IC50 in test [1] (setting [11]) and in test [2] (setting [12]) was below 200 nM throughout.
For `O=C(Nc1nc(-c2ccccn2)cs1)c1ccn(Cc2ccc(C(F)(F)F)cc2)c(=O)c1` [Example 10], the half-maximal inhibitory concentration (IC50) in test [1] (setting [9]) and in test [2] (setting [10]) was 500 to 1000 nM in each case.
As to `CN1CCN(Cc2nc(-c3ccc(F)cc3)c(C(=O)Nc3nc(-c4ccccn4)cs3)o2)CC1` [Example 71], the IC50 in test [1] (setting [3]) and in test [2] (setting [4]) was 200 to 500 nM in each case.
